Experimental data reported in patent publication US20100298141A1, “SUBSTITUTED PYRIDINE N-OXIDE HERBICIDES” (E. I. DU PONT DE NEMOURS AND COMPANY, priority 2007, published 2010).

What was measured:
velvetleaf [1] = test: Test C pre-/postemergence test; type: in vivo, Abutilon theophrasti; settings: Postemergence; for Plant response rating, Velvetleaf: scale 0 to 100, 0 no effect, 100 complete control
Summary of the method: (§1)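 Seeds were planted and treated preemergence with test chemical in a non-phytotoxic solvent mixture containing surfactant. Postemergence applications of the same formulation went onto plants 2 to 18 cm tall (1- to 4-leaf stage). A dash marks no test result.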

wheat [2] = test: Test A pre-/postemergence greenhouse test; type: in vivo, Triticum aestivum; settings: for Wheat plant response rating: 0 to 100 scale; for Plant response rating, Wheat: 0 to 100 scale where 0 is no effect and 100 is complete control
Summary of the method: (§2)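 Two application timings were run side by side in the greenhouse. Before emergence, compound went onto the soil surface of loam–sand pots as a directed spray; after emergence, plants at 2–10 cm and the one- to two-leaf stage were treated. Visual injury versus controls was rated at approximately day ten.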

redroot pigweed = test: Test A pre-/postemergence greenhouse test; type: in vivo, Amaranthus retroflexus; settings: for Pigweed plant response rating: 0 to 100 scale; for Plant response rating, Pigweed: 0 to 100 scale where 0 is no effect and 100 is complete control
Summary of the method: as §2

duck salad = test: Test C flooded paddy test; type: in vivo, Heteranthera limosa; settings: Flood
Summary of the method: (§3)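 Visual injury ratings against untreated controls, taken 13 to 15 days after compound was added to paddy water standing 3 cm above the soil.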

downy brome = test: Test C pre-/postemergence test; type: in vivo, Bromus tectorum; settings: Postemergence; for Plant response rating (0 to 100), Bromegrass, Downy: 31 g ai/ha; for Plant response rating, Bromegrass, Downy: scale 0 to 100, 0 no effect, 100 complete control
Summary of the method: as §1

morningglory = test: Test C pre-/postemergence test; type: in vivo, Ipomoea coccinea; settings: Postemergence; for Plant response rating (0 to 100), Morningglory: 31 g ai/ha; for Plant response rating, Morningglory: scale 0 to 100, 0 no effect, 100 complete control
Summary of the method: as §1

johnsongrass = test: Test C pre-/postemergence test; type: in vivo, Sorghum halepense; settings: Postemergence; for Plant response rating (0 to 100), Johnsongrass: 31 g ai/ha; for Plant response rating, Johnsongrass: scale 0 to 100, 0 no effect, 100 complete control
Summary of the method: as §1

rice = test: Test C flooded paddy test; type: in vivo, Oryza sativa; settings: Flood
Summary of the method: as §3

wheat [3] = test: Test C pre-/postemergence test; type: in vivo, Triticum aestivum; settings: Postemergence; for Plant response rating, Wheat: scale 0 to 100, 0 no effect, 100 complete control
Summary of the method: as §1

velvetleaf [4] = test: Test A pre-/postemergence greenhouse test; type: in vivo, Abutilon theophrasti; settings: for Velvetleaf plant response rating: 0 to 100 scale; for Plant response rating, Velvetleaf: 0 to 100 scale where 0 is no effect and 100 is complete control
Summary of the method: as §2

corn = test: Test C pre-/postemergence test; type: in vivo, Zea mays; settings: Postemergence; for Plant response rating (0 to 100), Corn: 31 g ai/ha; for Plant response rating, Corn: scale 0 to 100, 0 no effect, 100 complete control
Summary of the method: as §1

yellow nutsedge = test: Test C pre-/postemergence test; type: in vivo, Cyperus esculentus; settings: Postemergence; for Plant response rating (0 to 100), Nutsedge, Yellow: 31 g ai/ha; for Plant response rating, Nutsedge, Yellow: scale 0 to 100, 0 no effect, 100 complete control
Summary of the method: as §1

giant foxtail = test: Test C pre-/postemergence test; type: in vivo, Setaria faberii; settings: Postemergence; for Plant response rating (0 to 100), Foxtail, Giant: 31 g ai/ha; for Plant response rating, Foxtail, Giant: scale 0 to 100, 0 no effect, 100 complete control
Summary of the method: as §1

wild oat = test: Test C pre-/postemergence test; type: in vivo, Avena fatua; settings: Postemergence; for Plant response rating (0 to 100), Oat, Wild: 31 g ai/ha; for Plant response rating, Oat, Wild: scale 0 to 100, 0 no effect, 100 complete control
Summary of the method: as §1

woolly cupgrass = test: Test C pre-/postemergence test; type: in vivo, Eriochloa villosa; settings: Postemergence; for Plant response rating (0 to 100), Cupgrass, Woolly: 31 g ai/ha; for Plant response rating, Cupgrass, Woolly: scale 0 to 100, 0 no effect, 100 complete control
Summary of the method: as §1

[5] = Postemergence, 125 g ai/ha, 0 is no effect, 100 is complete control
[6] = Postemergence, 500 g ai/ha, 0 is no effect, 100 is complete control
[7] = Preemergence, 125 g ai/ha, 0 no effect, 100 complete control
[8] = 31 g ai/ha, scale 0 to 100 (0 no effect, 100 complete control)
[9] = 62 g ai/ha, scale 0 to 100, 0 no effect, 100 complete control, 13 to 15 days
[10] = 125 g ai/ha, scale 0 to 100, 0 no effect, 100 complete control, 13 to 15 days
[11] = 250 g ai/ha, scale 0 to 100, 0 no effect, 100 complete control, 13 to 15 days
[12] = 62 g ai/ha, scale 0 to 100 (0 no effect, 100 complete control)

SMILES: CC(c1c(C(F)(F)F)nn(C)c1Cl)S(=O)(=O)c1ccc(Cl)c[n+]1[O-] (racemic) [Compound 40]
- Plant response rating (0 to 100), Velvetleaf (velvetleaf [1]; 31 g ai/ha): 0
- Plant response rating (0 to 100), Velvetleaf (velvetleaf [1]; 62 g ai/ha): 0
- Plant response rating, Velvetleaf (velvetleaf [1]; 125 g ai/ha): 0
- Plant response rating, Velvetleaf (velvetleaf [1]; 250 g ai/ha): 0
- Wheat plant response rating (wheat [2]; [5]): 30
- Wheat plant response rating (wheat [2]; [6]): 50
- Wheat plant response rating (wheat [2]; [7]): 0
- Plant response rating, Wheat (wheat [2]; Preemergence, 500 g ai/ha): 40
- Pigweed plant response rating (redroot pigweed; [5]): 30
- Pigweed plant response rating (redroot pigweed; [6]): 60
- Pigweed plant response rating (redroot pigweed; [7]): 60
- Plant response rating, Pigweed (redroot pigweed; Preemergence, 500 g ai/ha): 100
- Plant response rating, Ducksalad (duck salad; [8]): 20
- Plant response rating, Ducksalad (duck salad; [9]): 45
- Plant response rating, Ducksalad (duck salad; [10]): 80
- Plant response rating, Ducksalad (duck salad; [11]): 90
- Plant response rating (0 to 100), Bromegrass, Downy (downy brome): 0
- Plant response rating, Bromegrass, Downy (downy brome; 62 g ai/ha): 0
- Plant response rating, Bromegrass, Downy (downy brome; 125 g ai/ha): 0
- Plant response rating, Bromegrass, Downy (downy brome; 250 g ai/ha): 0
- Plant response rating (0 to 100), Morningglory (morningglory): 0
- Plant response rating, Morningglory (morningglory; 62 g ai/ha): 0
- Plant response rating, Morningglory (morningglory; 125 g ai/ha): 0
- Plant response rating, Morningglory (morningglory; 250 g ai/ha): 0
- Plant response rating (0 to 100), Johnsongrass (johnsongrass): 0
- Plant response rating, Johnsongrass (johnsongrass; 62 g ai/ha): 20
- Plant response rating, Johnsongrass (johnsongrass; 125 g ai/ha): 20
- Plant response rating, Johnsongrass (johnsongrass; 250 g ai/ha): 60
- Plant response rating, Rice (rice; [8]): 0
- Plant response rating, Rice (rice; [9]): 15
- Plant response rating, Rice (rice; [10]): 60
- Plant response rating, Rice (rice; [11]): 65
- Plant response rating (0 to 100), Wheat (wheat [3]; 31 g ai/ha): 0
- Plant response rating (0 to 100), Wheat (wheat [3]; 62 g ai/ha): 0
- Plant response rating, Wheat (wheat [3]; 125 g ai/ha): 0
- Plant response rating, Wheat (wheat [3]; 250 g ai/ha): 5
- Velvetleaf plant response rating (velvetleaf [4]; [5]): 50
- Velvetleaf plant response rating (velvetleaf [4]; [6]): 60
- Velvetleaf plant response rating (velvetleaf [4]; [7]): 0
- Plant response rating, Velvetleaf (velvetleaf [4]; Preemergence, 500 g ai/ha): 50
- Plant response rating (0 to 100), Corn (corn): 0
- Plant response rating, Corn (corn; 62 g ai/ha): 0
- Plant response rating, Corn (corn; 125 g ai/ha): 0
- Plant response rating, Corn (corn; 250 g ai/ha): 0
- Plant response rating (0 to 100), Nutsedge, Yellow (yellow nutsedge): 0
- Plant response rating, Nutsedge, Yellow (yellow nutsedge; 62 g ai/ha): 0
- Plant response rating, Nutsedge, Yellow (yellow nutsedge; 125 g ai/ha): 0
- Plant response rating, Nutsedge, Yellow (yellow nutsedge; 250 g ai/ha): 0
- Plant response rating (0 to 100), Foxtail, Giant (giant foxtail): 0
- Plant response rating, Foxtail, Giant (giant foxtail; 62 g ai/ha): 0
- Plant response rating, Foxtail, Giant (giant foxtail; 125 g ai/ha): 0
- Plant response rating, Foxtail, Giant (giant foxtail; 250 g ai/ha): 0
- Plant response rating (0 to 100), Oat, Wild (wild oat): 0
- Plant response rating, Oat, Wild (wild oat; 62 g ai/ha): 0
- Plant response rating, Oat, Wild (wild oat; 125 g ai/ha): 0
- Plant response rating, Oat, Wild (wild oat; 250 g ai/ha): 5
- Plant response rating (0 to 100), Cupgrass, Woolly (woolly cupgrass): 0
- Plant response rating, Cupgrass, Woolly (woolly cupgrass; 62 g ai/ha): 0
- Plant response rating, Cupgrass, Woolly (woolly cupgrass; 125 g ai/ha): 0
- Plant response rating, Cupgrass, Woolly (woolly cupgrass; 250 g ai/ha): 0

SMILES: CCn1nc(C(F)(F)F)c(C(C)S(=O)(=O)c2cccc[n+]2[O-])c1OCC(F)(F)F (centres unmarked) [Compound 69]
- Plant response rating (0 to 100), Velvetleaf (velvetleaf [1]; 31 g ai/ha): 0
- Plant response rating (0 to 100), Velvetleaf (velvetleaf [1]; 62 g ai/ha): 0
- Plant response rating, Velvetleaf (velvetleaf [1]; 125 g ai/ha): 0
- Plant response rating, Velvetleaf (velvetleaf [1]; 250 g ai/ha): 0
- Plant response rating, Wheat (wheat [2]; Postemergence, 125 g ai/ha): 50
- Wheat plant response rating (wheat [2]; [6]): 60
- Wheat plant response rating (wheat [2]; [7]): 50
- Plant response rating, Wheat (wheat [2]; Preemergence, 500 g ai/ha): 90
- Plant response rating, Pigweed (redroot pigweed; Postemergence, 125 g ai/ha): 30
- Pigweed plant response rating (redroot pigweed; [6]): 90
- Pigweed plant response rating (redroot pigweed; [7]): 70
- Plant response rating, Pigweed (redroot pigweed; Preemergence, 500 g ai/ha): 100
- Plant response rating, Ducksalad (duck salad; [12]): 70
- Plant response rating, Ducksalad (duck salad; [11]): 100
- Plant response rating (0 to 100), Bromegrass, Downy (downy brome): 0
- Plant response rating, Bromegrass, Downy (downy brome; 62 g ai/ha): 0
- Plant response rating, Bromegrass, Downy (downy brome; 125 g ai/ha): 10
- Plant response rating, Bromegrass, Downy (downy brome; 250 g ai/ha): 45
- Plant response rating (0 to 100), Morningglory (morningglory): 0
- Plant response rating, Morningglory (morningglory; 62 g ai/ha): 0
- Plant response rating, Morningglory (morningglory; 125 g ai/ha): 0
- Plant response rating, Morningglory (morningglory; 250 g ai/ha): 0
- Plant response rating (0 to 100), Johnsongrass (johnsongrass): 0
- Plant response rating, Johnsongrass (johnsongrass; 62 g ai/ha): 0
- Plant response rating, Johnsongrass (johnsongrass; 125 g ai/ha): 20
- Plant response rating, Johnsongrass (johnsongrass; 250 g ai/ha): 40
- Plant response rating, Rice (rice; [12]): 40
- Plant response rating, Rice (rice; [11]): 70
- Plant response rating (0 to 100), Wheat (wheat [3]; 31 g ai/ha): 0
- Plant response rating (0 to 100), Wheat (wheat [3]; 62 g ai/ha): 0
- Plant response rating, Wheat (wheat [3]; 125 g ai/ha): 20
- Plant response rating, Wheat (wheat [3]; 250 g ai/ha): 50
- Plant response rating, Velvetleaf (velvetleaf [4]; Postemergence, 125 g ai/ha): 50
- Velvetleaf plant response rating (velvetleaf [4]; [6]): 80
- Velvetleaf plant response rating (velvetleaf [4]; [7]): 10
- Plant response rating, Velvetleaf (velvetleaf [4]; Preemergence, 500 g ai/ha): 100
- Plant response rating (0 to 100), Corn (corn): 0
- Plant response rating, Corn (corn; 62 g ai/ha): 0
- Plant response rating, Corn (corn; 125 g ai/ha): 0
- Plant response rating, Corn (corn; 250 g ai/ha): 0
- Plant response rating (0 to 100), Nutsedge, Yellow (yellow nutsedge): 0
- Plant response rating, Nutsedge, Yellow (yellow nutsedge; 62 g ai/ha): 0
- Plant response rating, Nutsedge, Yellow (yellow nutsedge; 125 g ai/ha): 0
- Plant response rating, Nutsedge, Yellow (yellow nutsedge; 250 g ai/ha): 0
- Plant response rating (0 to 100), Foxtail, Giant (giant foxtail): 0
- Plant response rating, Foxtail, Giant (giant foxtail; 62 g ai/ha): 0
- Plant response rating, Foxtail, Giant (giant foxtail; 125 g ai/ha): 0
- Plant response rating, Foxtail, Giant (giant foxtail; 250 g ai/ha): 60
- Plant response rating (0 to 100), Oat, Wild (wild oat): 0
- Plant response rating, Oat, Wild (wild oat; 62 g ai/ha): 0
- Plant response rating, Oat, Wild (wild oat; 125 g ai/ha): 0
- Plant response rating, Oat, Wild (wild oat; 250 g ai/ha): 90
- Plant response rating (0 to 100), Cupgrass, Woolly (woolly cupgrass): 0
- Plant response rating, Cupgrass, Woolly (woolly cupgrass; 62 g ai/ha): 0
- Plant response rating, Cupgrass, Woolly (woolly cupgrass; 125 g ai/ha): 0
- Plant response rating, Cupgrass, Woolly (woolly cupgrass; 250 g ai/ha): 0
